Reference: patent publication US8551937B2, “Peptide having an extending action for half-life of object peptide in plasma” (priority 2008, dated 2013)
Where two headings read alike, the source gives them in different places.

How the values were obtained:
NEP = biological target: T1, NEP (Rattus norvegicus, UniProt P07861); test: NEP resistance in vivo: influence of NEP inhibitor on pharmacokinetic parameters after intravenous administration; conditions: for AUC(0-inf) / C0 / half-life: male, SD, rat, in vivo, iv, 0.02 mg/kg, intravenous 0.02 mg/kg, male rats, N = 3; for AUC(0-inf): read-out: AUC0→∞ (converted); for C0: read-out: C0; for half-life: read-out: T½
T1 construct: male SD strain rats of 7 weeks age (Nippon Charles River; body weight: ca. 250 g) were used; from tissue; host or cells: whole animal: male SD rats (Nippon Charles River), in vivo
T1 sequence (P07861 1-750): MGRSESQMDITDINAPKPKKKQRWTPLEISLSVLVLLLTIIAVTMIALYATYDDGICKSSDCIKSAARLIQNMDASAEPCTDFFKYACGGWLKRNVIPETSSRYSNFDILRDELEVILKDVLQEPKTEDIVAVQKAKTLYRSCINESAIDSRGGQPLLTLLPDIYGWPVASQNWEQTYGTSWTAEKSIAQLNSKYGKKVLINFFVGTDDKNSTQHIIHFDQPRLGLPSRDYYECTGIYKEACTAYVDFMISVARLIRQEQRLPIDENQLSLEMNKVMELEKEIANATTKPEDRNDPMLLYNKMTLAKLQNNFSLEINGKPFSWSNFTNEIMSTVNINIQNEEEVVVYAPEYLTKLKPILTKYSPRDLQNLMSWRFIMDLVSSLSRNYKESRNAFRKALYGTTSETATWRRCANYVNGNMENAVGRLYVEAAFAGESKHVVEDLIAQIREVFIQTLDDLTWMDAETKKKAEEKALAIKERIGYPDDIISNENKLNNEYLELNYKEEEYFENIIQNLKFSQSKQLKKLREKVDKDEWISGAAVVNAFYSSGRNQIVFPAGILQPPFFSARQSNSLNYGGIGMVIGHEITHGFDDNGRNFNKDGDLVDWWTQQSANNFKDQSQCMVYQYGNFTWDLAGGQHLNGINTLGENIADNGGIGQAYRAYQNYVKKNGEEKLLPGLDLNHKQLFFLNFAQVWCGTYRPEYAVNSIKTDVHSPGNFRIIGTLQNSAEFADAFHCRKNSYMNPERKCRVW
Protocol: Further, NEP resistance in vivo of the native CNP-22 and chimeric CNP (B) was evaluated using the effect by the joint use with an NEP inhibitor affecting on changes in CNP immunoreactivity concentration in plasma after the intravenous administration as an index. This test was also carried out using rats into which a polyethylene tube (PE-50, manufactured by Clay […].) was inserted into thigh artery for collection of blood and rats into which a polyethylene tube (PE-10, manufactured by Clay […].) was inserted into thigh vein for administration of an NEP inhibitor under an anesthetizing condition using Nembutal. As a test system, male SD strain rats of 7 weeks age (Nippon Charles River; body weight: ca. 250 g) were used for the experiment where one group comprised 3 rats. […] Time for the administration was from 10 minutes before the administration of the native CNP-22 or the chimeric CNP (B) to completion of blood collection which was 60 minutes after the administration. The native CNP-22 and the chimeric CNP (B) each was administered into the tail vein in a dose of 20 μg/kg and the blood before starting the administration of NEP inhibitor (-10 minutes), before the administration of CNP (0 minute) and until after 60 minutes from the administration was collected by a thigh artery cannula. After a stabilizer and an anticoagulant were added to the collected blood, it was centrifuged to give plasma and the immunoreactivity concentration in the plasma was measured by the above-mentioned competitive RIA. The pharmacokinetic analysis was carried out by the same method as in Example 1.

[1] = CNP immunoreactivity concentration in plasma, half-life after intravenous administration (Example 7); conditions: male, SD, rat, in vivo, 10 nmol/kg
Protocol: The experiment was carried out using rats into which polyethylene tube (PE-50 manufactured by Clay Adams) was previously inserted into thigh artery under an anesthetized condition with Nembutal. As to a test system, male SD strain rats (Nippon Charles River) of 7 weeks age were used where one group comprised 3 rats. Native CNP-22 or chimeric CNP in a dose of 10 nmol/kg was administered into tail vein of the rat and the blood before the administration and until 60 minutes after the administration was collected by a polyethylene tube inserted into the thigh artery. To the collected blood were added EDTA (manufactured by Dojin Laboratories) and aprotinin (manufactured by Bayer) as a stabilizer and an anti-coagulant, respectively and the plasma was separated therefrom by centrifugal separation. CNP immunoreactivity concentration in plasma was measured by a competitive radioimmunoassay (RIA). At that time, a rabbit polyclonal antibody (#2) which specifically recognizes the ring partial structure of the native CNP-22 was used as an antibody and, as a labeled compound, ^125I-[Tyr^0] CNP was used.

[2] = Comparison of half-life in plasma of native CNP-22, native CNP-53 and chimeric CNP (Example 12); conditions: male, SD, rat, in vivo, iv, 20 nmol/kg, T½ Mean Value, intravenous, male rats, N = 3
Protocol: Changes in CNP immunoreactivity concentration in plasma when the native CNP-22 shown by SEQ ID No: 101 was administered either solely or jointly with neutral endo-peptidase (NEP) inhibitor and compared with changes in CNP immunoreactivity concentration in plasma when native CNP-53 (SEQ ID No: 159) and the chimeric CNP (D) (structure mentioned already) were intravenously administered.
The experiment was conducted using rats where polyethylene tube (PE-50, manufactured by Clay Adams) was previously inserted into thigh artery under the anesthetized condition with Nembutal. In the group where the native CNP-22 was administered either solely or jointly with an NEP inhibitor, the polyethylene tube (PE-10, manufactured by Clay Adams) was also inserted into the thigh vein. As to a test system, male SD rats (Nippon Charles River) of 7 weeks age were used where one group comprised three rats. As to the NEP inhibitor, DL-Thiorphan (manufactured by Sigma) was used and, during the period from 10 minutes before the initiation of administration of the native CNP-22 until 60 minutes after the initiation of the administration where collection of the blood finished, 5% mannitol (100 μL/min/body) or NEP inhibitor (30 μg/100 μL/min/body) was subjected to a constant-speed intravenous administration for 70 minutes using an Infusion Pump (CFV 2100, manufactured by Nippon Koden K. K.). Native CNP-22, native CNP-53 or chimeric CNP (D) was administered into tail vein in a dose of 20 nmol/kg each and blood over the time from before administration and 60 minutes after administration was collected from a polyethylene tube inserted into the thigh artery. To the collected blood were added EDTA (Dojin Laboratories) and aprotinin (manufactured by Bayer) as a stabilizer and an anti-coagulant, respectively and the plasma was separated by means of centrifugal separation. CNP immunoreactivity concentration in the plasma was measured by a competitive radioimmunoassay (RIA). At that time, a rabbit polyclonal antibody (#2) which specifically recognizes a ring part structure which is the common structure for native CNP-22 and native CNP-53 was used as an antibody while, as a labeling compound, ^125I-[Tyr^0] CNP-22 was used.

CC[C@H](C)[C@@H]1NC(=O)[C@H](CCCNC(=N)N)NC(=O)[C@H](CC(=O)O)NC(=O)[C@H](CC(C)C)NC(=O)[C@H](CCCCN)NC(=O)[C@H](CC(C)C)NC(=O)CNC(=O)[C@H](Cc2ccccc2)NC(=O)[C@@H](NC(=O)CNC(=O)[C@H](CCCCN)NC(=O)[C@H](CO)NC(=O)[C@H](CC(C)C)NC(=O)CN)CSSC[C@@H](C(=O)O)NC(=O)CNC(=O)[C@H](CC(C)C)NC(=O)CNC(=O)[C@H](CO)NC(=O)[C@H](CCSC)NC(=O)[C@H](CO)NC(=O)CNC1=O [Native CNP-22]
AUC with NEP inhibitor as compared with the case where the inhibitor was not used (NEP; intravenous, rats): about 3.7 fold | half-life with NEP inhibitor as compared with the case where the inhibitor was not used (NEP; intravenous, rats): about 5 fold | AUC(0-inf) (NEP; NEP Inhibitor (+)): 12.6 ng·h/mL | C0 (NEP; NEP Inhibitor (+)): 131 ± 32 ng/mL | half-life (NEP; NEP Inhibitor (+)): 9.94 ± 1.4 min | AUC(0-inf) (NEP; NEP Inhibitor (−)): 3.37 ng·h/mL | C0 (NEP; NEP Inhibitor (−)): 145 ± 20 ng/mL | half-life (NEP; NEP Inhibitor (−)): 1.96 ± 0.05 min | half-life [1]: 4.34 min | half-life ([2]; Joint Use with NEP Inhibitor: no): 1.11 min | half-life ([2]; Joint Use with NEP Inhibitor: yes (DL-Thiorphan)): 16.2 min
